Source: patent publication US8501746B2, “Organic compounds” (Xenon Pharmaceuticals Inc., priority 2006, dated 2013)

melting point | Structure (SMILES)
153 to 154 °C | Cc1cc(-n2ccc(OCc3ccccc3)cc2=O)sc1C(=O)NCc1ccccc1 [Example 8.1, N-Benzyl-5-(4-(benzyloxy)-2-oxopyridin-1(2H)-yl)-3-methylthiophene-2-carboxamide]
225 to 227 °C | Cc1cc(-n2ccc(OCc3ccc(C(F)(F)F)cc3)cc2=O)sc1C(=O)NCc1ccccc1 [Example 9.1, N-Benzyl-3-methyl-5-(2-oxo-4-(4-(trifluoromethyl)benzyloxy)pyridin-1(2H)-yl)thiophene-2-carboxamide]
195 to 197 °C | Cc1cc(-n2ccc(OCc3ccc(F)cc3)cc2=O)sc1C(=O)NCc1ccccc1 [Example 9.2, N-Benzyl-5-(4-(4-fluorobenzyloxy)-2-oxopyridin-1(2H)-yl)-3-methylthiophene-2-carboxamide]
178 to 180 °C | Cc1cc(-n2ccc(OCc3ccc(OC(F)F)cc3)cc2=O)sc1C(=O)NCc1ccccc1 [Example 9.3, N-Benzyl-5-(4-(4-(difluoromethoxy)benzyloxy)-2-oxopyridin-1(2H)-yl)-3-methylthiophene-2-carboxamide]
159 to 160 °C | Cc1cc(-n2ccc(OCCc3ccccc3)cc2=O)sc1C(=O)NCc1ccccc1 [Example 9.4, N-Benzyl-3-methyl-5-(2-oxo-4-phenethoxypyridin-1(2H)-yl)thiophene-2-carboxamide]
175 to 177 °C | Cc1cc(-n2ccc(OCC3CC3)cc2=O)sc1C(=O)NCc1ccccc1 [Example 9.5, N-Benzyl-5-(4-(cyclopropylmethoxy)-2-oxopyridin-1(2H)-yl)-3-methylthiophene-2-carboxamide]
214 to 216 °C | Cc1nc(-n2ccc(OCc3ccc(C(F)(F)F)o3)cc2=O)sc1C(=O)NCc1ccccc1 [Example 9.7]
278 to 280 °C | Cc1nc(-n2ccc(OCc3ccc(C(F)(F)F)cc3)cc2=O)sc1C(=O)NCc1ccccc1 [Example 9.8, N-Benzyl-4-methyl-2-(2-oxo-4-(4-(trifluoromethyl)benzyloxy)pyridin-1(2H)-yl)thiazole-5-carboxamide]
242 to 244 °C | Cc1nc(-n2ccc(OCc3ccc(OC(F)F)cc3)cc2=O)sc1C(=O)NCc1ccc(F)cc1 [Example 9.9, 2-(4-(4-(Difluoromethoxy)benzyloxy)-2-oxopyridin-1(2H)-yl)-N-(4-fluorobenzyl)-4-methylthiazole-5-carboxamide]
196 to 198 °C | Cc1nc(-n2ccc(OCC3CCCC3)cc2=O)sc1C(=O)NCc1ccccc1 [Example 9.10, N-Benzyl-2-(4-(cyclopentylmethoxy)-2-oxopyridin-1(2H)-yl)-4-methylthiazole-5-carboxamide]
183 to 185 °C | COc1ccn(-c2nc(C)c(C(=O)NCc3ccc(F)c(F)c3)s2)c(=O)c1 [Example 9.11, N-(3,4-Difluorobenzyl)-2-(4-methoxy-2-oxopyridin-1(2H)-yl)-4-methylthiazole-5-carboxamide]
181 to 183 °C | Cc1nc(-n2ccc(OCC3CCCO3)cc2=O)sc1C(=O)NCc1ccccc1 (centres unmarked) [Example 9.12, N-Benzyl-4-methyl-2-(2-oxo-4-((tetrahydrofuran-2-yl)methoxy)pyridin-1(2H)-yl)thiazole-5-carboxamide]
135 to 136 °C | CCOC(=O)c1[nH]c(-n2ccc(OCc3ccccc3)cc2=O)nc1C [Example 12.2, Ethyl 2-(4-(benzyloxy)-2-oxopyridin-1(2H)-yl)-4-methyl-1H-imidazole-5-carboxylate]
261 to 263 °C | Cc1nc(-n2ccc(OCc3ccc(C(F)(F)F)o3)cc2=O)sc1C(=O)O [Example 13.6]
> 300 °C | Cc1nc(-n2ccc(OCc3ccc(F)cc3)cc2=O)sc1C(=O)O [Example 13.7, 2-(4-(4-Fluorobenzyloxy)-2-oxopyridin-1(2H)-yl)-4-methylthiazole-5-carboxylic acid]
163 to 165 °C | CCOC(=O)c1sc(-n2ccc(OC)cc2=O)nc1C [Example 15.1, Ethyl 2-(4-Methoxy-2-oxopyridin-1(2H)-yl)-4-methylthiazole-5-carboxylate]
188 to 190 °C | CCOC(=O)c1sc(-n2ccc(OCCC3CC3)cc2=O)nc1C [Example 15.2, Ethyl 2-(4-(2-Cyclopropylethoxy)-2-oxopyridin-1(2H)-yl)-4-methylthiazole-5-carboxylate]
214 to 217 °C | CCOC(=O)c1sc(-n2ccc(OCc3ccc(F)cc3)cc2=O)nc1C [Example 17.1, Ethyl 2-(4-(4-Fluorobenzyloxy)-2-oxopyridin-1(2H)-yl)-4-methylthiazole-5-carboxylate]

The remaining lines, values behind:

Structure (SMILES) | melting point
Cc1cc(-n2ccc(OCc3ccccc3)cc2=O)sc1C(=O)NCc1cccc(F)c1 [Example 3.22, 5-(4-(Benzyloxy)-2-oxopyridin-1(2H)-yl)-N-(3-fluorobenzyl)-3-methylthiophene-2-carboxamide] | 140 to 141 °C
CCNC(=O)c1sc(-n2ccc(OCc3ccccc3)cc2=O)cc1C [Example 3.23, 5-(4-(Benzyloxy)-2-oxopyridin-1(2H)-yl)-N-ethyl-3-methylthiophene-2-carboxamide] | 158 to 160 °C
Cc1nc(-n2ccc(C(F)(F)F)cc2=O)sc1C(=O)NCc1cccnc1 [Example 3.24, 4-Methyl-2-(2-oxo-4-(trifluoromethyl)pyridin-1(2H)-yl)-N-(pyridin-3-ylmethyl)thiazole-5-carboxamide] | 172 to 173 °C
Cc1nc(-n2ccc(OCc3ccccc3)cc2=O)sc1C(=O)NCc1cccnc1 [Example 3.25, 2-(4-(Benzyloxy)-2-oxopyridin-1(2H)-yl)-4-methyl-N-(pyridin-3-ylmethyl)thiazole-5-carboxamide] | 208 to 209 °C
Cc1nc(-n2ccc(NC(=O)c3ccccc3)cc2=O)sc1C(=O)NCc1ccccc1 [Example 4, 2-(4-Benzamido-2-oxopyridin-1(2H)-yl)-N-benzyl-4-methylthiazole-5-carboxamide] | 246 to 248 °C
Cc1nc(-n2ccc(NCc3ccccc3)cc2=O)sc1C(=O)NCc1ccccc1 [Example 5, N-benzyl-2-(4-(benzylamino)-2-oxopyridin-1(2H)-yl)-4-methylthiazole-5-carboxamide] | 253 to 255 °C
Cc1nc(-n2ccc(OCc3cccnc3)cc2=O)sc1C(=O)NCc1ccccc1 [Example 6, N-Benzyl-4-methyl-2-(2-oxo-4-(pyridin-3-ylmethoxy)pyridin-1(2H)-yl)thiazole-5-carboxamide] | 214 to 216 °C
Cc1nc(-n2ccc(OCc3ccccn3)cc2=O)sc1C(=O)NCc1ccccc1 [Example 6.1, N-Benzyl-4-methyl-2-(2-oxo-4-(pyridin-2-ylmethoxy)pyridin-1(2H)-yl)thiazole-5-carboxamide] | 202 to 205 °C
Cc1nc(-n2cccc(O)c2=O)sc1C(=O)NCc1ccccc1 [Example 7, N-Benzyl-2-(3-hydroxy-2-oxopyridin-1(2H)-yl)-4-methylthiazole-5-carboxamide] | 225 to 228 °C
O=C(NCc1ccccc1)c1csc(-n2ccc(O)cc2=O)c1 [Example 7.3, N-Benzyl-5-(4-hydroxy-2-oxopyridin-1(2H)-yl)thiophene-3-carboxamide] | 150 °C (dec.)
Cc1cc(-n2ccc(O)cc2=O)sc1C(=O)NCc1ccccc1 [Example 7.4, N-Benzyl-5-(4-hydroxy-2-oxopyridin-1(2H)-yl)-3-methylthiophene-2-carboxamide] | 98 °C (dec.)
Cc1cc(-n2ccc(O)cc2=O)sc1C(=O)NCc1ccc(F)cc1 [Example 7.7, N-(4-Fluorobenzyl)-5-(4-hydroxy-2-oxopyridin-1(2H)-yl)-3-methylthiophene-2-carboxamide] | 95 °C (dec.)
Cc1cc(-n2ccc(O)cc2=O)sc1C(=O)NCc1cccc(F)c1 [Example 7.8, N-(3-Fluorobenzyl)-5-(4-hydroxy-2-oxopyridin-1(2H)-yl)-3-methylthiophene-2-carboxamide] | 140 to 142 °C
CCNC(=O)c1sc(-n2ccc(O)cc2=O)cc1C [Example 7.9, N-Ethyl-5-(4-hydroxy-2-oxopyridin-1(2H)-yl)-3-methylthiophene-2-carboxamide] | 183 to 184 °C
Cc1nc(-n2ccc(O)cc2=O)sc1C(=O)NCc1cccnc1 [Example 7.10, 2-(4-Hydroxy-2-oxopyridin-1(2H)-yl)-4-methyl-N-(pyridin-3-ylmethyl)thiazole-5-carboxamide] | 238 to 240 °C
O=C(NCc1ccccc1)c1csc(-n2ccc(OCc3ccccc3)cc2=O)c1 [Example 8, N-Benzyl-5-(4-(benzyloxy)-2-oxopyridin-1(2H)-yl)thiophene-3-carboxamide] | 162 to 163 °C
Cc1cc(-n2ccc(OCCC3CC3)cc2=O)sc1C(=O)NCc1ccccc1 [Example 9, N-Benzyl-5-(4-(2-cyclopropylethoxy)-2-oxopyridin-1(2H)-yl)-3-methylthiophene-2-carboxamide] | 134 to 136 °C
Cc1nc(-n2ccc(-c3ccc(Cl)cc3)cc2=O)sc1C(=O)NCc1ccccc1 [Example 10, N-Benzyl-2-(4-(4-chlorophenyl)-2-oxopyridin-1(2H)-yl)-4-methylthiazole-5-carboxamide] | 265 to 267 °C
CCOC(=O)c1sc(-n2ccc(O)cc2=O)nc1C [Example 14, Ethyl 2-(4-Hydroxy-2-oxopyridin-1(2H)-yl)-4-methylthiazole-5-carboxylate] | 270 to 273 °C
CCOC(=O)c1sc(-n2ccc(OCC3CC3)cc2=O)nc1C [Example 15, Ethyl 2-(4-(Cyclopropylmethoxy)-2-oxopyridin-1(2H)-yl)-4-methylthiazole-5-carboxylate] | 180 to 183 °C
CCOC(=O)c1sc(-n2ccc(OCc3ccc(C(F)(F)F)o3)cc2=O)nc1C [Example 17] | 196 to 198 °C
Cc1nc(-n2ccc(Oc3ccccc3)cc2=O)sc1C(=O)NCc1ccccc1 [Example 18, N-Benzyl-4-methyl-2-(2-oxo-4-phenoxypyridin-1(2H)-yl)thiazole-5-carboxamide] | 67 to 70 °C
Cc1nc(-n2ccc(CCc3ccccc3)cc2=O)sc1C(=O)NCc1ccccc1 [Example 19, N-benzyl-4-methyl-2-(2-oxo-4-phenethylpyridine-1(2H)-yl)thiazole-5-carboxamide] | 149 to 150 °C
